How the values were obtained:
Type in all cases: in vitro ADME
Settings in all cases: 30 min, 37 °C
[1] = molecular target: T1, CYP2E1 (Homo sapiens, UniProt P05181); test: Monooxygenases activity screening, CYP2E1; design: key: +, detected; -, not detected
T1 construct: purchased Discovery Life Sciences (Huntsville, LA, USA); host or cells: baculovirus-infected insect cells (microsomes, Supersomes)
Procedure: (§1) For incubations with CYP2A6 or CYP2C9, phosphate buffer was replaced with 90 mM Tris buffer, according to the manufacturer’s guideline. […] All incubations were done in duplicate and concentrations were fixed. Verapamil (25 µM) was incubated as a positive control.

[2] = molecular target: T2, flavin-containing monooxygenase 3 (FMO3) (Homo sapiens, UniProt P31513); test: Monooxygenases activity screening, FMO3; design: key: +, detected; -, not detected
T2 construct: purchased Discovery Life Sciences (Huntsville, LA, USA); host or cells: baculovirus-infected insect cells (microsomes, Supersomes)
T2 sequence (P31513 1-532): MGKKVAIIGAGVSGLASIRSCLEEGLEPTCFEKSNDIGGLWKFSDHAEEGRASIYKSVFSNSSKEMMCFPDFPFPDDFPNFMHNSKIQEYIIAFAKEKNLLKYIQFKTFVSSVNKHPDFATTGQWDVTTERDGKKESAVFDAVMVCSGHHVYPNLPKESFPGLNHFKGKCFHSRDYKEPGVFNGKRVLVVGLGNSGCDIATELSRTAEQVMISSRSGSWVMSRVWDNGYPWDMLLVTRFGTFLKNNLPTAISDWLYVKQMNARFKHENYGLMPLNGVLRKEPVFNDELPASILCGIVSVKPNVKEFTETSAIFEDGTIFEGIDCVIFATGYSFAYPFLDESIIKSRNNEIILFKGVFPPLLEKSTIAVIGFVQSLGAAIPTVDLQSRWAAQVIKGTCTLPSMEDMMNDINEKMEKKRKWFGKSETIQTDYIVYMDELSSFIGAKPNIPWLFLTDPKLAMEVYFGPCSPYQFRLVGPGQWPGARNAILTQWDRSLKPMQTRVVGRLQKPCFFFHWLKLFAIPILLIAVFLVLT
Procedure: as §1

[3] = molecular target: T3, CYP1A2 (Homo sapiens, UniProt P05177); test: Monooxygenases activity screening, CYP1A2; design: key: +, detected; -, not detected
T3 construct: purchased Discovery Life Sciences (Huntsville, LA, USA); host or cells: baculovirus-infected insect cells (microsomes, Supersomes)
T3 sequence (P05177 1-516): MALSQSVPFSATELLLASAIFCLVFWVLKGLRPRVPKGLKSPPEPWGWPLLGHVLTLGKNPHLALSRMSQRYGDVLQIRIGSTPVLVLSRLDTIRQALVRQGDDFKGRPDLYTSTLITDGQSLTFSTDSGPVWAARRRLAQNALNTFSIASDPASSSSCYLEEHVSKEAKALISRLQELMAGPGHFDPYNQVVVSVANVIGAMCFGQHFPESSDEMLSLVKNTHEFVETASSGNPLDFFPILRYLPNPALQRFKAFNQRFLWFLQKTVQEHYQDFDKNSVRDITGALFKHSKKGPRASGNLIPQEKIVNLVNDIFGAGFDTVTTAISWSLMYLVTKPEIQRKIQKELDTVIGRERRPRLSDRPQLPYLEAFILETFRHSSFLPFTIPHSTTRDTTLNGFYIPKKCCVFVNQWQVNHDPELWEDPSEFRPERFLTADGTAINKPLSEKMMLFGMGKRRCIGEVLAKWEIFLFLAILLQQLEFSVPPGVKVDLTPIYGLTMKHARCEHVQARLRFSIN
Procedure: as §1

[4] = molecular target: T4, CYP2C19 (Homo sapiens, UniProt P33261); test: Monooxygenases activity screening, CYP2C19; design: key: +, detected; -, not detected
T4 construct: purchased Discovery Life Sciences (Huntsville, LA, USA); host or cells: baculovirus-infected insect cells (microsomes, Supersomes)
Procedure: as §1

[5] = molecular target: T5, CYP2A6 (Homo sapiens, UniProt P11509); test: Monooxygenases activity screening, CYP2A6; design: key: +, detected; -, not detected
T5 construct: purchased Discovery Life Sciences (Huntsville, LA, USA); host or cells: baculovirus-infected insect cells (microsomes, Supersomes)
T5 sequence (P11509 1-494): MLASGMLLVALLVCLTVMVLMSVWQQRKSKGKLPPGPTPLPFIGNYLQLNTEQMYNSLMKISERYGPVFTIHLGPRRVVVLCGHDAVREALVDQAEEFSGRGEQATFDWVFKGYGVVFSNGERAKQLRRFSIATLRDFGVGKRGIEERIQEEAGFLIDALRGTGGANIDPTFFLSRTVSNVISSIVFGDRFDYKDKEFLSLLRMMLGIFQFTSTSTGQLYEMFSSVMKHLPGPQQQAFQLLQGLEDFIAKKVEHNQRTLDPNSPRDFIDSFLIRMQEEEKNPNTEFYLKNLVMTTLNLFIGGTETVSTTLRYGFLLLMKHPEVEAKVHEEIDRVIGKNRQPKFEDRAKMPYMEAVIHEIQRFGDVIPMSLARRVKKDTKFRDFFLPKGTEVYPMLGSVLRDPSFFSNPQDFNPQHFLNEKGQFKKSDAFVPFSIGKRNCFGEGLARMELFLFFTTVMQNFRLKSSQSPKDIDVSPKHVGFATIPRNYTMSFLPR
Procedure: as §1

[6] = molecular target: T6, CYP2C9 (Homo sapiens, UniProt P11712); test: Monooxygenases activity screening, CYP2C9; design: key: +, detected; -, not detected
T6 construct: purchased Discovery Life Sciences (Huntsville, LA, USA); host or cells: baculovirus-infected insect cells (microsomes, Supersomes)
Procedure: as §1

[7] = molecular target: T7, CYP2D6 (Homo sapiens, UniProt P10635); test: Monooxygenases activity screening, CYP2D6; design: key to one-step metabolite detected in CYP2D6 incubation: +, detected; -, not detected
T7 construct: purchased Discovery Life Sciences (Huntsville, LA, USA); host or cells: baculovirus-infected insect cells (microsomes, Supersomes)
Procedure: as §1

[8] = molecular target: T8, CYP3A5 (Homo sapiens, UniProt P20815); test: Monooxygenases activity screening, CYP3A5; design: key: +, detected; -, not detected
T8 construct: purchased Discovery Life Sciences (Huntsville, LA, USA); host or cells: baculovirus-infected insect cells (microsomes, Supersomes)
Procedure: as §1

[9] = molecular target: T9, CYP2C8 (Homo sapiens, UniProt P10632); test: Monooxygenases activity screening, CYP2C8; design: key: +, detected; -, not detected
T9 construct: purchased Discovery Life Sciences (Huntsville, LA, USA); host or cells: baculovirus-infected insect cells (microsomes, Supersomes)
T9 sequence (P10632 1-490): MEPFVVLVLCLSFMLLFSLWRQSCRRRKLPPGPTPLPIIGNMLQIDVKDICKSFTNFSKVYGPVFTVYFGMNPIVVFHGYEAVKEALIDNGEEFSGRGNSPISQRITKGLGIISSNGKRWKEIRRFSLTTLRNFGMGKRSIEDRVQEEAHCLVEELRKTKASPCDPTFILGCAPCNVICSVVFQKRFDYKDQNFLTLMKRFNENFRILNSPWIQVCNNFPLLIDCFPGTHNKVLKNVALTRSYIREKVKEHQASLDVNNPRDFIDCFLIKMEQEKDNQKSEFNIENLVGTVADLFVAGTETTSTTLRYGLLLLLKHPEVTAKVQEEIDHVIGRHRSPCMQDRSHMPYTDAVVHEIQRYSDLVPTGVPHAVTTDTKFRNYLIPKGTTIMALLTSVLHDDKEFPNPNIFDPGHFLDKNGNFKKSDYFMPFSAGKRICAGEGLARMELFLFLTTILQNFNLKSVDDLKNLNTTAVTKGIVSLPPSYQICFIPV
Procedure: as §1

[10] = molecular target: T10, CYP3A4 (Homo sapiens, UniProt P08684); test: Monooxygenases activity screening, CYP3A4; design: key: +, detected; -, not detected
T10 construct: purchased Discovery Life Sciences (Huntsville, LA, USA); host or cells: baculovirus-infected insect cells (microsomes, Supersomes)
Procedure: as §1

[11] = molecular target: T11, CYP2B6 (Homo sapiens, UniProt P20813); test: Monooxygenases activity screening, CYP2B6; design: key: +, detected; -, not detected
T11 construct: purchased Discovery Life Sciences (Huntsville, LA, USA); host or cells: baculovirus-infected insect cells (microsomes, Supersomes)
T11 sequence (P20813 1-491): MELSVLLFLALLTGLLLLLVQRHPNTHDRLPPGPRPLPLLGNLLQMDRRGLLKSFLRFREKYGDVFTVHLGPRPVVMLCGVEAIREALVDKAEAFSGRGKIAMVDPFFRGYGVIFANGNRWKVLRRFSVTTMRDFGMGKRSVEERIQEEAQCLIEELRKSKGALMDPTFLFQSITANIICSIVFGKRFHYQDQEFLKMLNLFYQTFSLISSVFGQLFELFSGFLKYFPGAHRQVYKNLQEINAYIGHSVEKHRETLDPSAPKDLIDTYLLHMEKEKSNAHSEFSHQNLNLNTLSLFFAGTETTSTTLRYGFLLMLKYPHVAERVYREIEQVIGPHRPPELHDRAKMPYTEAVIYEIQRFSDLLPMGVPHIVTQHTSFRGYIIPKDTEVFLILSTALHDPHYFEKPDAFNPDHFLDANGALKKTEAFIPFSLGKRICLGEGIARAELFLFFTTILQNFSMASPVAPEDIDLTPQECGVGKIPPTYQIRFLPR
Procedure: as §1

[12] = substrate 4MeO-NE-BP 25 µM, Table S3.1
[13] = substrate 4MeO-αP-BP 25 µM, Table S3.2
[14] = substrate 4MeO-αP-VP 25 µM, Table S3.3

T8 sequence (P20815 whole entry): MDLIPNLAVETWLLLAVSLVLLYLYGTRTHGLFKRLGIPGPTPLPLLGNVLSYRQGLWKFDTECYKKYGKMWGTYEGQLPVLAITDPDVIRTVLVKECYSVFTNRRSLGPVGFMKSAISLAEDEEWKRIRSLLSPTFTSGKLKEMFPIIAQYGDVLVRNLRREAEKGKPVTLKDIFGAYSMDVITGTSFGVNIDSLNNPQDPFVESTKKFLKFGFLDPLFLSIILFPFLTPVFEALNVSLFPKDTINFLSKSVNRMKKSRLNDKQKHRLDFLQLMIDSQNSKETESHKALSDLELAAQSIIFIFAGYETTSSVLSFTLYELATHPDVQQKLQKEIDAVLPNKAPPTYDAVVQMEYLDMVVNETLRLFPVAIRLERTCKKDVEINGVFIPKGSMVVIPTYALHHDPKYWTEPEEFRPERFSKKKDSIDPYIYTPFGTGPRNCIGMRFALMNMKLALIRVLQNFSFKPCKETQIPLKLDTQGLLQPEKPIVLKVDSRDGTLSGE
T4 sequence (P33261 whole entry): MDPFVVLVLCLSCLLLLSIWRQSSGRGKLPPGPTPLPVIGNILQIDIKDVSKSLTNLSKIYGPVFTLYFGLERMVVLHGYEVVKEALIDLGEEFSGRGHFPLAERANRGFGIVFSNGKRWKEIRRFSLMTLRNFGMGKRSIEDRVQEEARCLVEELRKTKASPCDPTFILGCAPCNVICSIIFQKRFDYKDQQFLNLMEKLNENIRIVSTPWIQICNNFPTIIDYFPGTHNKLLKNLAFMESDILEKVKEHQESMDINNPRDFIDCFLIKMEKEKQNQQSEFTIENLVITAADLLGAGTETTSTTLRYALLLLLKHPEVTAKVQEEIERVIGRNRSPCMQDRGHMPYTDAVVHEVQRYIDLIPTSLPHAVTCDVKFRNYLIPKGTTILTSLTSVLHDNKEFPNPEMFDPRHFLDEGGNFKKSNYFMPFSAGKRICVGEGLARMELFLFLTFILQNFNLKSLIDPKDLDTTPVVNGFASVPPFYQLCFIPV
T6 sequence (P11712 whole entry): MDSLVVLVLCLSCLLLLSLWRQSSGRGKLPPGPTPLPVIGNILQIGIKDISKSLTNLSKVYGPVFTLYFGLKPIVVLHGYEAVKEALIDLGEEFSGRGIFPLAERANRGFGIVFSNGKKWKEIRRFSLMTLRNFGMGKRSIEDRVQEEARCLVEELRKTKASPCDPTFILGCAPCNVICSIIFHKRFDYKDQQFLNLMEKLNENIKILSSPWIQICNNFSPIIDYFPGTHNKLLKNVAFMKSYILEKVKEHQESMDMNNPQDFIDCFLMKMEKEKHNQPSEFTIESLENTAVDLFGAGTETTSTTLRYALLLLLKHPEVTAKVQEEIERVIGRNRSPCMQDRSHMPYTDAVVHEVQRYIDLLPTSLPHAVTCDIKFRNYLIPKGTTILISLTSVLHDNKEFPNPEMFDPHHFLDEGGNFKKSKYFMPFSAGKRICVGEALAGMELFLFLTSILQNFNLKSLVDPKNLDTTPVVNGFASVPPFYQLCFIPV
T10 sequence (P08684 whole entry): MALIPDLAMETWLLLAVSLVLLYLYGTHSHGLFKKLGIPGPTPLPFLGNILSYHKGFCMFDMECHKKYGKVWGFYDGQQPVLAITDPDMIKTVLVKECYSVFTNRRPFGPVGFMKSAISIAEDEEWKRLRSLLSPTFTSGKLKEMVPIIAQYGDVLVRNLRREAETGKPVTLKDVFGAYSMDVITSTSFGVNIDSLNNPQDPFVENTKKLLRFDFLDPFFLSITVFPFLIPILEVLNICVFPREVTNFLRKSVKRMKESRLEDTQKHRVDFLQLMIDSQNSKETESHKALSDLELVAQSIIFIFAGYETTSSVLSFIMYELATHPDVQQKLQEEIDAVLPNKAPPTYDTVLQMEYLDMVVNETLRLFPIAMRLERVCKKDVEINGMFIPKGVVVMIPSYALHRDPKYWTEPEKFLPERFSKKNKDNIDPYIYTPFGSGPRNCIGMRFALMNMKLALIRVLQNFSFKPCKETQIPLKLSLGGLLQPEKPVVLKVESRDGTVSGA
T7 sequence (P10635 whole entry): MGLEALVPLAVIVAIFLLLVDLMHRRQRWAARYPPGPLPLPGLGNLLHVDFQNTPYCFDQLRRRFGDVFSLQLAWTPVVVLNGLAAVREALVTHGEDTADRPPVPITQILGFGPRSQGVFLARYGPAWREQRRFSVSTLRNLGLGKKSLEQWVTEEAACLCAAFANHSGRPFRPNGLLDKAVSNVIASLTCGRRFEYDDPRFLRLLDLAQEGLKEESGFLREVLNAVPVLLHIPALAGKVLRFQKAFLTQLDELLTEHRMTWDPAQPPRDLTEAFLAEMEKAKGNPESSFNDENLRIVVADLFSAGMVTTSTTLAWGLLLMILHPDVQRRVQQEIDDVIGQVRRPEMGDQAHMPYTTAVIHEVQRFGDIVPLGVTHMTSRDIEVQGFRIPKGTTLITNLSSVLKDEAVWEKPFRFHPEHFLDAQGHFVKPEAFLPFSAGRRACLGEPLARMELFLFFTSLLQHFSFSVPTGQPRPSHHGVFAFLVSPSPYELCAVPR
T1 sequence (P05181 whole entry): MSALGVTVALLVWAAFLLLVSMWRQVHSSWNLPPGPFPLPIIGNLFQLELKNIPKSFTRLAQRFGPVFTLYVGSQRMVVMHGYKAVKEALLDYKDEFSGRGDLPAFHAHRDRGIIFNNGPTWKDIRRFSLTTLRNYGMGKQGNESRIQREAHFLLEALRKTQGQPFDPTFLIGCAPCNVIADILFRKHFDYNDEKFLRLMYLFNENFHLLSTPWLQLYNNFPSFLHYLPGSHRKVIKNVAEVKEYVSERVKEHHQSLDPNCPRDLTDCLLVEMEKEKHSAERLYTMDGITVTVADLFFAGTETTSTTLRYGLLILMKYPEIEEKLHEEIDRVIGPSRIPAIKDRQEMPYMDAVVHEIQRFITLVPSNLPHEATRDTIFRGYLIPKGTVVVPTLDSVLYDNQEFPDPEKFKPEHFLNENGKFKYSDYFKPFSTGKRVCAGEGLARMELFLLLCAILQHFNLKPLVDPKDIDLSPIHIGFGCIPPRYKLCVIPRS

CCNC(CC)C(=O)c1ccc(O)cc1 (stereo not drawn) [MO1.1]
-: one-step metabolite detected in CYP2E1 incubation [1, 12] | one-step metabolite detected in FMO3 incubation [2, 12] | one-step metabolite detected in CYP2A6 incubation [5, 12] | one-step metabolite detected in CYP2C9 incubation [6, 12] | one-step metabolite detected in CYP3A5 incubation [8, 12] | one-step metabolite detected in CYP2C8 incubation [9, 12] | one-step metabolite detected in CYP3A4 incubation [10, 12] | one-step metabolite detected in CYP2B6 incubation [11, 12]
+: one-step metabolite detected in CYP1A2 incubation [3, 12] | one-step metabolite detected in CYP2C19 incubation [4, 12] | one-step metabolite detected in CYP2D6 incubation [7, 12]

CCC(N)C(=O)c1ccc(OC)cc1 (stereo not drawn) [MO1.3]
+: one-step metabolite detected in CYP2C19 incubation [4, 12] | one-step metabolite detected in CYP3A4 incubation [10, 12] | one-step metabolite detected in CYP2B6 incubation [11, 12]
-: one-step metabolite detected in CYP2E1 incubation [1, 12] | one-step metabolite detected in FMO3 incubation [2, 12] | one-step metabolite detected in CYP1A2 incubation [3, 12] | one-step metabolite detected in CYP2A6 incubation [5, 12] | one-step metabolite detected in CYP2C9 incubation [6, 12] | one-step metabolite detected in CYP2D6 incubation [7, 12] | one-step metabolite detected in CYP3A5 incubation [8, 12] | one-step metabolite detected in CYP2C8 incubation [9, 12]

CCC(C(=O)c1ccc(OC)cc1)N(O)CC (stereo not drawn) [MO1.4]
-: one-step metabolite detected in CYP2E1 incubation [1, 12] | one-step metabolite detected in CYP2A6 incubation [5, 12] | one-step metabolite detected in CYP2C9 incubation [6, 12]
+: one-step metabolite detected in FMO3 incubation [2, 12] | one-step metabolite detected in CYP1A2 incubation [3, 12] | one-step metabolite detected in CYP2C19 incubation [4, 12] | one-step metabolite detected in CYP2D6 incubation [7, 12] | one-step metabolite detected in CYP3A5 incubation [8, 12] | one-step metabolite detected in CYP2C8 incubation [9, 12] | one-step metabolite detected in CYP3A4 incubation [10, 12] | one-step metabolite detected in CYP2B6 incubation [11, 12]

CCC(C(=O)c1ccc(O)cc1)N1CCCC1 (stereo not drawn) [MO2.2]
-: one-step metabolite detected in CYP2E1 incubation [1, 13] | one-step metabolite detected in FMO3 incubation [2, 13] | one-step metabolite detected in CYP2A6 incubation [5, 13] | one-step metabolite detected in CYP2C9 incubation [6, 13] | one-step metabolite detected in CYP3A5 incubation [8, 13] | one-step metabolite detected in CYP2C8 incubation [9, 13] | one-step metabolite detected in CYP3A4 incubation [10, 13] | one-step metabolite detected in CYP2B6 incubation [11, 13]
+: one-step metabolite detected in CYP1A2 incubation [3, 13] | one-step metabolite detected in CYP2C19 incubation [4, 13] | one-step metabolite detected in CYP2D6 incubation [7, 13]

CCCC(C(=O)c1ccc(O)cc1)N1CCCC1 (stereo not drawn) [MO3.2]
-: one-step metabolite detected in CYP2E1 incubation [1, 14] | one-step metabolite detected in FMO3 incubation [2, 14] | one-step metabolite detected in CYP2A6 incubation [5, 14] | one-step metabolite detected in CYP2C9 incubation [6, 14] | one-step metabolite detected in CYP3A5 incubation [8, 14] | one-step metabolite detected in CYP2B6 incubation [11, 14]
+: one-step metabolite detected in CYP1A2 incubation [3, 14] | one-step metabolite detected in CYP2C19 incubation [4, 14] | one-step metabolite detected in CYP2D6 incubation [7, 14] | one-step metabolite detected in CYP2C8 incubation [9, 14] | one-step metabolite detected in CYP3A4 incubation [10, 14]

CCCC(C(=O)c1ccc(OC)cc1)[N+]1([O-])CCCC1 (stereo not drawn) [MO3.4]
+: one-step metabolite detected in FMO3 incubation [2, 14] | one-step metabolite detected in CYP1A2 incubation [3, 14] | one-step metabolite detected in CYP2A6 incubation [5, 14] | one-step metabolite detected in CYP2D6 incubation [7, 14] | one-step metabolite detected in CYP3A4 incubation [10, 14]
-: one-step metabolite detected in CYP2E1 incubation [1, 14] | one-step metabolite detected in CYP2C19 incubation [4, 14] | one-step metabolite detected in CYP2C9 incubation [6, 14] | one-step metabolite detected in CYP3A5 incubation [8, 14] | one-step metabolite detected in CYP2C8 incubation [9, 14] | one-step metabolite detected in CYP2B6 incubation [11, 14]
